Experiment: xn = mol fraction of the nth substance listed
Details: Liquid, Vibrating tube method, x1 = 1

CCCCCCCCCC [decane] + CCCCCCCCCCCC
Details	mass density [kg/m3]
283.55 K, 5000 kPa	742
283.56 K, 3000 kPa	740
283.56 K, 20000 kPa	752
283.56 K, 30000 kPa	758
283.56 K, 40000 kPa	763
283.56 K, 50000 kPa	769
283.56 K, 60000 kPa	774
283.56 K, 70000 kPa	779
283.56 K, 80000 kPa	783
283.56 K, 90000 kPa	788
283.57 K, 1000 kPa	739
283.57 K, 10000 kPa	745
283.58 K, 100 kPa	738
293.48 K, 100 kPa	731
293.48 K, 1000 kPa	731
293.49 K, 5000 kPa	734
293.49 K, 10000 kPa	738
293.49 K, 20000 kPa	745
293.5 K, 30000 kPa	751
293.5 K, 40000 kPa	757
293.5 K, 50000 kPa	763
293.5 K, 100000 kPa	787
293.51 K, 60000 kPa	768
293.51 K, 70000 kPa	773
293.51 K, 80000 kPa	778
293.51 K, 90000 kPa	783
303.42 K, 100 kPa	723
303.42 K, 1000 kPa	724
303.42 K, 10000 kPa	731
303.42 K, 30000 kPa	745
303.42 K, 40000 kPa	751
303.42 K, 70000 kPa	768
303.42 K, 80010 kPa	773
303.42 K, 90000 kPa	777
303.43 K, 5000 kPa	727
303.43 K, 20000 kPa	738
303.43 K, 50000 kPa	757
303.43 K, 60000 kPa	762
303.43 K, 100000 kPa	782
313.35 K, 100 kPa	716
313.35 K, 1000 kPa	717
313.35 K, 5000 kPa	721
313.35 K, 40000 kPa	746
313.36 K, 20000 kPa	732
313.36 K, 50000 kPa	752
313.36 K, 70000 kPa	763
313.36 K, 80000 kPa	768
313.36 K, 90000 kPa	773
313.36 K, 100000 kPa	777
313.37 K, 10000 kPa	725
313.37 K, 30000 kPa	739
313.37 K, 60000 kPa	757
323.24 K, 100 kPa	708
323.24 K, 1000 kPa	709
323.24 K, 100000 kPa	771
323.25 K, 5000 kPa	712
323.25 K, 10000 kPa	717
323.25 K, 20000 kPa	725
323.25 K, 30000 kPa	732
323.25 K, 40000 kPa	739
323.25 K, 50000 kPa	745
323.25 K, 60000 kPa	751
323.25 K, 70000 kPa	757
323.25 K, 80000 kPa	762
323.25 K, 90000 kPa	767
333.12 K, 5000 kPa	705
333.12 K, 10000 kPa	710
333.12 K, 20000 kPa	718
333.13 K, 100 kPa	700
333.13 K, 1000 kPa	701
333.13 K, 30000 kPa	726
333.13 K, 80000 kPa	757
333.13 K, 90000 kPa	762
333.13 K, 100000 kPa	767
333.14 K, 40000 kPa	733
333.14 K, 50000 kPa	740
333.14 K, 60000 kPa	746
333.14 K, 70000 kPa	751
343.01 K, 100 kPa	693
343.01 K, 1000 kPa	694
343.01 K, 10000 kPa	703
343.01 K, 20000 kPa	712
343.01 K, 30000 kPa	720
343.01 K, 40000 kPa	727
343.01 K, 50000 kPa	734
343.01 K, 60000 kPa	740
343.02 K, 5000 kPa	698
343.02 K, 70000 kPa	746
343.02 K, 80000 kPa	752
343.02 K, 90000 kPa	757
343.02 K, 100000 kPa	762
352.87 K, 100 kPa	686
352.87 K, 1000 kPa	687
352.87 K, 5000 kPa	691
352.88 K, 10000 kPa	696
352.88 K, 20000 kPa	706
352.88 K, 30000 kPa	714
352.88 K, 40000 kPa	722
352.88 K, 50000 kPa	729
352.88 K, 60000 kPa	735
352.89 K, 70000 kPa	741
352.89 K, 80000 kPa	747
352.89 K, 90000 kPa	753
352.89 K, 100000 kPa	758
362.69 K, 100 kPa	677
362.69 K, 1000 kPa	678
362.7 K, 5000 kPa	683
362.7 K, 10000 kPa	689
362.71 K, 20000 kPa	699
362.71 K, 30000 kPa	708
362.71 K, 40000 kPa	716
362.71 K, 50000 kPa	723
362.71 K, 60000 kPa	730
362.72 K, 70000 kPa	736
362.72 K, 80000 kPa	742
362.72 K, 90000 kPa	747
362.72 K, 100000 kPa	753
